Experimental findings from ChEMBL document CHEMBL1201862, “PubChem BioAssay data set” (2004) are described below.

Holding throughout (assay): DTP human tumour cell line panel, 48 h
Experiment [1] concerns NCI-H23.
The subject of experiment [2] is SK-OV-3.
For experiment [3], the system named is SNB-75.
Experiment [4] concerns HOP-92.
In experiment [5] the test system is ACHN.
Experiment [6] concerns HCC 2998.
Experiment [7] relates to SNB-19.
The test system of experiment [8] is SF-539.
Experiment [9] concerns SK-MEL-2.
The subject of experiment [10] is MOLT-4.
Experiment [11] has as its system SN12C.
Experiment [12] relates to HL-60.
Experiment [13] relates to CCRF-CEM.
Experiment [14] has as its system HCT-116.
Experiment [15] concerns LOX IMVI.
In experiment [16] the test system is NCI-H226.
Experiment [17] relates to U-251.
The subject of experiment [18] is M19-MEL.

Structures are written as SMILES.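 96-well plates; 48 h exposure; 5 concentrations. Endpoints by linear interpolation between flanking doses. Not reached: highest tested concentration assigned. GI50 is the concentration that inhibits growth by half.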 Activity calls are given as the source filed them. Rule as the data show it: active = GI50 up to about 1.1 µM and inactive = higher.

`COc1ccc(CCc2ccccc2CC(=O)O)cc1`: the GI50 in experiment [1], in experiment [2], in [3], in [4], in experiment [5] and in [6] was > 100 µM (inactive) each time. Besides, the GI50 in experiment [7], in experiment [8], in [9], in [10], in experiment [11] and in experiment [12] was > 100 µM (inactive) each time. Also, the GI50 in experiment [13], in experiment [14], in experiment [15], in experiment [16], in experiment [17] and in experiment [18] was > 100 µM (inactive) in each case.

Take `CCCCCCCCCCCCCP(=O)(NCC(N)=O)OCC` (stereo not drawn): the GI50 – broadly, the concentration giving 50% growth inhibition – was 24.3 µM (inactive) in experiment [1]; 21.3 µM (inactive) in experiment [2]; 5.31 µM (inactive) in experiment [3]; 17 µM (inactive) in [4]; 21.8 µM (inactive) in experiment [5]; 20.2 µM (inactive) in [6]. Besides, the GI50 in [7] was 18.7 µM (inactive); in [8], 17.4 µM (inactive); in experiment [9], 16.3 µM (inactive); in [11], 18.3 µM (inactive); in experiment [12], 13.8 µM (inactive); in experiment [13], 22.6 µM (inactive). Also, the GI50 was 14.8 µM (inactive) in experiment [14]; > 10 µM (inactive) in [15]; 17.5 µM (inactive) in experiment [16]; 17.3 µM (inactive) in experiment [17]; 19.7 µM (inactive) in experiment [18].

On to `CCc1cccc(C)c1NC(=O)CC1C(=O)Nc2ccccc2S1(=O)=O` (stereo not drawn), for which the GI50 is 15.7 µM (inactive) in experiment [1]; 16 µM (inactive) in experiment [3]; 12 µM (inactive) in [4]; 18.6 µM (inactive) in [5]; 16.8 µM (inactive) in experiment [6]; 27.5 µM (inactive) in [7]. Further, the GI50 in [8] is 11 µM (inactive); in experiment [9], 21.1 µM (inactive); in experiment [10] it was 14.1 µM (inactive); in [11], 20.8 µM (inactive); in experiment [12], 12.1 µM (inactive); in experiment [13] it was 13.7 µM (inactive). The GI50 in experiment [14] was 15.8 µM (inactive); in [15], 13.2 µM (inactive); in experiment [16], 33 µM (inactive); in experiment [17] it was 16.9 µM (inactive); in [18] it was 15.5 µM (inactive).

Take `CC(=O)CC(=O)NC=O`: the GI50 in [1], in experiment [2], in experiment [3], in [4], in experiment [5] and in experiment [6] was > 100 µM (inactive) in each case. Further, the GI50 in [7], in experiment [8], in [9], in [10], in experiment [11] and in experiment [12] was > 100 µM (inactive) throughout. In addition, the GI50 in experiment [13], in experiment [14], in experiment [16], in experiment [17] and in experiment [18] was > 100 µM (inactive) throughout.

Regarding `CC[C@@H]1OC2(C)CC(S(=O)(=O)c3ccccc3)CC1O2` (stereo partly drawn), the GI50 in [1], in experiment [2], in experiment [3], in experiment [4], in experiment [5] and in experiment [6] was > 100 µM (inactive) each time. The GI50 in [7], in experiment [8], in experiment [9], in experiment [10], in experiment [11] and in experiment [12] was > 100 µM (inactive) throughout. Further, the GI50 in experiment [13], in experiment [14], in experiment [16], in experiment [17] and in experiment [18] was > 100 µM (inactive) in each case.

As for `CC(=O)C1CC2(c3ccccc3)C(=O)c3ccccc3N2O1` (stereo not drawn), the GI50 in experiment [1], in [2], in experiment [3], in [4], in experiment [5] and in [6] was > 100 µM (inactive) throughout. Further, the GI50 in [7], in experiment [8], in [10], in experiment [11], in experiment [12] and in experiment [13] was > 100 µM (inactive) in each case. The GI50 in [14], in [16], in [17] and in experiment [18] was > 100 µM (inactive) throughout.

`CN(C)c1ccc(/C=C(/NC(=O)c2ccccc2)c2nc3cc(Cl)ccc3[nH]2)cc1`: the GI50 in experiment [1] was 8.51 µM (inactive); in experiment [2], 52.6 µM (inactive); in experiment [3], 17.9 µM (inactive); in experiment [4] it was > 100 µM (inactive); in experiment [5] it was 48.9 µM (inactive); in [6] it was 18.5 µM (inactive). Moreover, the GI50 in [7] is 45.1 µM (inactive); in [8] it was 55.8 µM (inactive); in experiment [9], 37.1 µM (inactive); in experiment [10] it was 20.9 µM (inactive); in experiment [11], 47.9 µM (inactive); in experiment [12], 16 µM (inactive). In addition, the GI50 was 22.4 µM (inactive) in experiment [13]; 37.8 µM (inactive) in [14]; 18.3 µM (inactive) in [15]; 30.8 µM (inactive) in experiment [16]; 35.5 µM (inactive) in experiment [17]; 27.5 µM (inactive) in [18].

As for `CC1SC2=NC3=C(c4ccccc4C3=O)C(c3ccc(F)cc3)N2C1=O` (stereo not drawn), the GI50 in experiment [1] was > 100 µM (inactive); in [2], > 100 µM (inactive); in experiment [3] it was 35.6 µM (inactive); in [4] it was 50.7 µM (inactive); in experiment [5], > 100 µM (inactive); in [6] it was > 100 µM (inactive). Moreover, the GI50 in [7] is > 100 µM (inactive); in experiment [8], > 100 µM (inactive); in experiment [9], > 100 µM (inactive); in [10], > 100 µM (inactive); in [11], 63.7 µM (inactive); in experiment [12], > 100 µM (inactive). The GI50 in experiment [13] was > 100 µM (inactive); in experiment [14], > 100 µM (inactive); in experiment [16] it was 38.5 µM (inactive); in experiment [17] it was > 100 µM (inactive); in experiment [18], > 100 µM (inactive).

For the compound `Nc1ccc(Nc2nc(F)nc(-c3c4ccccc4c4n3CCS4)n2)cc1`, the GI50 is 16.2 µM (inactive) in experiment [1]; 15.3 µM (inactive) in experiment [2]; 14.9 µM (inactive) in [3]; 6.18 µM (inactive) in [4]; 12.7 µM (inactive) in experiment [5]; 22 µM (inactive) in [6]. The GI50 in experiment [7] is 15.4 µM (inactive); in [8], 13.4 µM (inactive); in experiment [9], 14.1 µM (inactive); in [10] it was 11.2 µM (inactive); in [11] it was 15.5 µM (inactive); in experiment [13] it was 6.56 µM (inactive). Moreover, the GI50 is 14.6 µM (inactive) in experiment [14]; 10.4 µM (inactive) in [15]; 11.6 µM (inactive) in experiment [16]; 14.7 µM (inactive) in [17]; 16.5 µM (inactive) in experiment [18].

`CCC(C)CC(C)CC(C)/C=C(\C)C1=C(C)CC(C)(O)O1` (stereo not drawn): the GI50 in experiment [1] is 76.4 µM (inactive); in [2] it was > 100 µM (inactive); in experiment [3], > 100 µM (inactive); in experiment [4] it was 18.3 µM (inactive); in [5], 87.5 µM (inactive); in experiment [6], > 100 µM (inactive). The GI50 in experiment [8] was > 100 µM (inactive); in [10], 35.7 µM (inactive); in experiment [11] it was 90.4 µM (inactive); in [12] it was 23.7 µM (inactive); in [13] it was 52.6 µM (inactive); in [14], 41 µM (inactive). Also, the GI50 in experiment [15] was > 100 µM (inactive); in experiment [16] it was 76.9 µM (inactive); in [17], 61.8 µM (inactive); in experiment [18] it was > 100 µM (inactive).

Take `C[C@@H]1C2=CC[C@@]3(C)C(CCC3[C@H](C)[C@H]3C[C@@]4(C)O[C@@](c5cccnc5)(O3)OC4(C)C)[C@@H]2C2OC2[C@@]12CCC(=O)O2` (stereo partly drawn): the GI50 in experiment [1] was 34.2 µM (inactive); in experiment [2] it was 39.9 µM (inactive); in [3], 34 µM (inactive); in [4], 26.8 µM (inactive); in experiment [5], 46.5 µM (inactive); in [6], 37 µM (inactive). Moreover, the GI50 in experiment [7] was 49.1 µM (inactive); in experiment [8], 52.2 µM (inactive); in [9], 25.2 µM (inactive); in [11] it was 33 µM (inactive); in experiment [12], 17 µM (inactive); in [13], 31 µM (inactive). The GI50 is 40.8 µM (inactive) in experiment [14], 31.5 µM (inactive) in experiment [15], 35.6 µM (inactive) in experiment [17] and 41.2 µM (inactive) in experiment [18].

Take `COC(=O)[C@@]12OC[C@]34C([C@@H](O)C1O)[C@@]1(C)CC(=O)C(O)=C(C)C1C[C@H]3OC(=O)[C@H](OC(=O)/C=C(/c1ccccc1)C(F)(F)F)[C@H]42` (stereo partly drawn): the GI50 was 1.48 µM (inactive) in experiment [1]; 7.29 µM (inactive) in experiment [2]; 7.8 µM (inactive) in [3]; 2.15 µM (inactive) in experiment [4]; 4.21 µM (inactive) in [5]; 1.75 µM (inactive) in experiment [6]. The GI50 in experiment [7] is 3.62 µM (inactive); in experiment [8], 1 µM (active); in experiment [9] it was 8.26 µM (inactive); in experiment [10], 0.998 µM (active); in experiment [11], 8.69 µM (inactive); in experiment [12] it was 0.363 µM (active). Further, the GI50 in experiment [13] is 3.88 µM (inactive); in experiment [14], 2.43 µM (inactive); in experiment [16], 2.02 µM (inactive); in experiment [17], 4.41 µM (inactive); in [18], 1.19 µM (inactive).
